{"source": "patent US11357774B2", "about": "“Use of a quinoline sulfonyl compound for treatment of inflammation, inflammatory disorders, autoimmune disorders and malaria” (priority 2019, dated 2022)", "key": {"[1]": {"test_system": "IL-6 and TNF-α secretion in human PBMC", "assay": "IL-6 and TNF-α in PHA-p-stimulated human PBMC (ELISA)", "assay_type": "cell-based", "conditions": "PHA-p 10 μg/mL, 6 hours", "method": "(§1) The values presented are the mean±SEM (n=2).\n(§2) The enzyme-linked immunosorbent assay (ELISA) is a quantitative measurement based on sandwich-based enzyme linking, using a protein-specific capture antibody to determine the levels of single or multiple chemokines and cytokines.\nData in FIG. 14 show the levels of IL-6 (upper plot) and TNF-α (lower plot) in human PBMC (1×10^6/mL cells) stimulated with 10 μg/mL phytohemagglutinin-p (PHA-p) (10 μg/mL) for 6 hours, in the absence (control) or presence of varying concentrations of VR23 (0.38, 0.75, 1.5, 3 or 6 μM) or BTZ (6.25, 12.5, 25 or 50 nM). The measurement was carried out with a single-analyte ELISA."}, "[2]": {"test_system": "PBMC cells", "assay": "Sulforhodamine B (SRB) assay, IC50 on PBMC", "assay_type": "cell-based, human", "conditions": "read-out: IC50", "method": "(§3) The sulforhodamine B (SRB) assay^21 was used to determine the drug concentration that half of the cell growth/viability is inhibited (IC50). Cells were cultured in 96-well plates, with 5,000 cells in 100 μL of culture medium per well. The rest of the protocol was the same as described previously^22,23.\n(§4) Data shown in Table 1 are IC50 values of VR23 and other compounds, which were determined using sulforhodamine B (SRB) assays on immunologically relevant cells (THP-1, SW-982 and PBMC). […] Two well-known proteasome inhibitors, BTZ and CFZ, were included for comparison since VR23 is also a proteasome inhibitor, albeit targeting different subunits^2. The widely used anti-inflammatory DEX was included, also for comparison.\n(§5) THP-1, SW982 and PBMC cells (5,000 cells/well) were treated with each compound for 48 hours. The IC50, the drug concentration reducing cell growth/viability by 50%, was determined by a dose-response four-parameter curve (generated with GraphPad Prism V. 4.02) formed by 10 two-fold dilutions (n=3)."}, "[3]": {"test_system": "IL-8 secretion in THP-1 cells", "assay": "IL-8 secretion in TNF-α-stimulated THP-1 cells (ELISA)", "assay_type": "cell-based, human", "conditions": "THP-1, TNF-α 10 ng/mL, 6 hours; VR23 at IC50 concentration (between 2 and 4 μM), BTZ 6 nM, CFZ 1 nM", "method": "For comparison, BTZ (6 nM), CFZ (1 nM), and DEX (2 μM) were also included. *** is p<0.001, which denotes a significant difference from the TNF-α-only group, determined by a Dunnett's test. The values presented are the mean±SEM (n=3).\nas §2\nThe data in FIG. 12 show the levels of IL-8 secreted in the THP-1 culture medium in response to TNF-α alone (10 ng/mL) or in combination with varying concentrations (0.5, 1.0, 2, 4 or 6 μM) of VR23. For comparison, BTZ (6 nM), CFZ (1 nM) and DEX (2 μM) were also included. The measurement time was 6-hour post-stimulation. The measurement was carried out with a single-analyte ELISA."}, "[4]": {"test_system": "IL-1β, TNF-α, IL-6 and IL-8 secretion in THP-1 cells", "assay": "Cytokine secretion in LPS-stimulated THP-1 cells (ELISA)", "assay_type": "cell-based, human", "conditions": "THP-1, LPS 5 μg/mL, 6 hours; VR23 0.5-6 μM, BTZ 6 nM, CFZ 1 nM, DEX 2 μM", "method": "For comparison, BTZ (6 nM), CFZ (1 nM), and DEX (2 μM) were also included. *, **, and *** are p<0.05, p<0.01, and p<0.001, respectively, which denote a significant difference from the LPS-only group. The mean±SEM (n=3) values were determined by a Dunnett's test.\nas §2\nData shown in FIG. 11 are the results of experiments carried out to investigate VR23's effect on the levels of inflammatory cytokines. […] For comparison, BTZ (6 nM), CFZ (1 nM) and DEX (2 μM) were also included. The levels of cytokine secreted in cell culture supernatants were measured by a single-analyte ELISA. The IC50 value of VR23 is 3 μM and the concentrations of BTZ, CFZ and DEX used are their respective IC50 values."}, "[5]": {"test_system": "THP-1 monocytic cells", "assay": "Sulforhodamine B (SRB) assay, IC50 on THP-1 cells", "assay_type": "cell-based, human", "conditions": "read-out: IC50", "method": "as §3, §4, §5"}, "[6]": {"test_system": "SW-982 synovial cell line", "assay": "Sulforhodamine B (SRB) assay, IC50 on SW-982 cells", "assay_type": "cell-based", "conditions": "Homo sapiens; SW982 cells, 48 hours, SRB; read-out: IC50", "method": "as §3, §4, §5"}, "[7]": {"test_system": "IL-6 secretion in HFLS-N cells", "assay": "IL-6 secretion in stimulated HFLS-N cells (ELISA)", "assay_type": "cell-based, human", "conditions": "IL-1β 10 ng/mL, 6 hours, VR23 2.5-10 μM, HCQ 15 or 30 μM", "method": "(§6) The mean±SEM (n=3) values were determined by a Dunnett's test.\nas §1, §2\n(§7) This finding was extended to human cells relevant to autoimmune diseases. Human fibroblast-like synoviocytes (HFLS) are present in the synovial fluid of joint capsules and produce harmful molecules that contribute to joint destruction and the exacerbation of the disease in rheumatoid arthritis patients. […] The cells were then stimulated with IL-1β (FIG. 16) or LPS (FIG. 17), in the absence (control; IL-1β only) or presence of VR23 or HCQ. HCQ was included for comparison because it is often used to treat rheumatoid arthritis. […] For “VR23 only” samples, 5 μM VR23 was used. Fifty thousand HFLS cells per mL were used for the experiment. Cytokine levels in cell culture supernatants were determined by a single-analyte ELISA. […] Fifty thousand HFLS cells per mL were used for the experiment. The cytokine secretion was measured in cell culture supernatants by a single-analyte ELISA."}, "[8]": {"test_system": "IL-6 secretion in HFLS-RA cells", "assay": "IL-6 secretion in stimulated HFLS-RA cells (ELISA)", "assay_type": "cell-based, human", "conditions": "HFLS-RA, IL-1β 10 ng/mL, 6 hours; VR23 2.5-10 μM, HCQ 15 or 30 μM", "method": "as §6, §1, §2, §7"}, "[9]": {"test_system": "human fibroblast-like synoviocytes from rheumatoid arthritis patients (HFLS-RA)", "assay": "Viability test, HFLS-RA cells", "assay_type": "cell-based", "conditions": "6 hours, IL-1β 10 ng/mL, VR23 1.25-5.0 μM, HCQ 7.5-30 μM", "method": "The values presented are the mean±SEM (n=3).\nThe CCK-8 assay was used to count viable cells under the various treatment conditions. Briefly, cells were cultured in 11 columns of a 96-well clustered plate, with 5,000 cells in 100 μL of culture medium per well, excluding one column for a media-only control. The plate was incubated overnight at 37° C. in the humidified conditions, followed by treatment with test compounds diluted in the culture medium (10 μL). Each column was treated with a different condition so that each treatment could have 8 repeats. […] The absorbance was measured using an automatic plate reader (Synergy H4 Hybrid Multi-Mode Microplate Reader, BioTek, Montreal, Canada) at 450 nm wavelength. The cell viability of each treatment sample was determined by using the following equation (%)=(Abstrtmt-Absmedia)/(AbsuT-Absmedia)*100, where Abstrtmt is the absorbance value of cells with the various treatment conditions; Absmedia is the absorbance of the well containing media only; AbsuT is the absorbance of the wells with untreated cells.\nThis finding was extended to human cells relevant to autoimmune diseases. […] Cytokine levels in cell culture supernatants were determined by a single-analyte ELISA. […] The cytokine secretion was measured in cell culture supernatants by a single-analyte ELISA."}, "[10]": {"test_system": "IL-6 secretion in SW-982 synovial cells", "assay": "IL-6 secretion in IL-1β-stimulated SW-982 synovial cells (ELISA)", "assay_type": "cell-based, human", "conditions": "SW-982, IL-1β 1 ng/mL, 6 hours; VR23 10 μM, HCQ 60 μM", "method": "The mean±SEM (n=2) values were determined by a Dunnett's test.\nas §2\nThe measurement was carried out with a single-analyte ELISA. […] While not wishing to be limited by theory, cytokine IL-6 is strongly implicated to the progress of rheumatoid arthritis^29."}}, "note": "Like-named read-outs stand apart in the source and are kept apart here."}
{"compound": "CC(C)C[C@H](NC(=O)[C@H](Cc1ccccc1)NC(=O)c1cnccn1)B(O)O", "note": "[BTZ, bortezomib, reference compound]", "values": [{"measurement": "PHA-induced IL-6", "setting": "[1]; VR23 1.5 μM, BTZ 6 nM", "result": "reduced the level of IL-6"}, {"measurement": "PHA-induced TNF-α", "setting": "[1]; VR23 3.0 μM, BTZ 4× the IC50 dose", "result": "largely ineffective in reducing the level of TNF-α"}, {"measurement": "IC50", "setting": "[2]; 48 hours", "result": "5.86 ± 0.3", "unit": "nM"}, {"measurement": "IC50", "setting": "[2]; Homo sapiens, 48 h", "result": 6, "unit": "nM"}, {"measurement": "IL-8 secretion", "setting": "[3]", "result": "substantially reduced IL-8"}, {"measurement": "levels of inflammatory cytokines IL-1β, TNF-α, IL-6, IL-8", "setting": "[4]", "result": "do not"}, {"measurement": "IC50", "setting": "[5]; 48 hours", "result": "5.91 ± 0.34", "unit": "nM"}, {"measurement": "IC50", "setting": "[5]; Homo sapiens, THP-1, 48 h", "result": 6, "unit": "nM"}]}
{"compound": "CC(C)C[C@H](NC(=O)[C@H](CCc1ccccc1)NC(=O)CN1CCOCC1)C(=O)N[C@@H](Cc1ccccc1)C(=O)N[C@@H](CC(C)C)C(=O)[C@@]1(C)CO1", "note": "[CFZ, carfilzomib, reference compound]", "values": [{"measurement": "IL-8 secretion", "setting": "[3]", "result": "not effective at all"}, {"measurement": "levels of inflammatory cytokines IL-1β, TNF-α, IL-6, IL-8", "setting": "[4]", "result": "do not"}, {"measurement": "IC50", "setting": "[5]; 48 hours", "result": "1.01 ± 0.11", "unit": "nM"}, {"measurement": "IC50", "setting": "[5]; Homo sapiens, THP-1, 48 h", "result": 1, "unit": "nM"}]}
{"compound": "C[C@@H]1C[C@H]2[C@@H]3CCC4=CC(=O)C=C[C@]4(C)[C@@]3(F)[C@@H](O)C[C@]2(C)[C@@]1(O)C(=O)CO", "note": "[DEX, Dexamethasone]", "values": [{"measurement": "IC50", "setting": "[5]; 48 hours", "result": "2070 ± 67", "unit": "nM"}, {"measurement": "IC50", "setting": "[5]; Homo sapiens, THP-1, 48 h", "result": 2000, "unit": "nM"}]}
{"compound": "CCN(CCO)CCCC(C)Nc1ccnc2cc(Cl)ccc12", "note": "(stereo not shown) [HCQ, hydroxychloroquine, reference compound]", "values": [{"measurement": "IC50", "setting": "[6]", "result": 28200, "unit": "nM"}, {"measurement": "IL-6 secretion, dose dependence", "setting": "[7]", "result": "decreases in a dose dependent manner"}, {"measurement": "IL-6 secretion, dose dependence", "setting": "[8]", "result": "decreases in a dose dependent manner"}, {"measurement": "cell viability", "setting": "[9]", "result": "none of the conditions examined significantly affected the viability"}, {"measurement": "secretion of IL-6", "setting": "[10]", "result": "comparable"}]}
